Where two headings read alike, the source gives them in different places.
What was measured:
[1] = test system: A. baumannii A387; experiment: MIC without and with sub-inhibitory polymyxin B (Example 4); format: cell-based, Acinetobacter baumannii; settings: A. baumannii A387
[2] = test system: A. baumannii A401; experiment: Preliminary MBC without and with sub-inhibitory polymyxin B (Example 4); format: cell-based, Acinetobacter baumannii; settings: for MBC: 2nd experiment
[3] = test system: Acinetobacter sp. (H064200250); experiment: MIC without and with sub-inhibitory polymyxin B (Example 4); format: cell-based
[4] = test system: A. baumannii A329; experiment: Preliminary MBC without and with sub-inhibitory polymyxin B (Example 4); format: cell-based, Acinetobacter baumannii; settings: for MBC: 2nd experiment
[5] = test system: A. baumannii A473; experiment: MIC without and with sub-inhibitory polymyxin B (Example 4); format: cell-based, Acinetobacter baumannii; settings: A. baumannii A473
[6] = test system: A. baumannii A390; experiment: as above; format: cell-based, Acinetobacter baumannii; settings: A. baumannii A390
[7] = test system: A. baumannii ATCC 19606; experiment: as above; format: cell-based, Acinetobacter baumannii
[8] = test system: A. baumannii A387; experiment: Preliminary MBC without and with sub-inhibitory polymyxin B (Example 4); format: cell-based, Acinetobacter baumannii; settings: for MBC: 2nd experiment
[9] = test system: A. baumannii A489; experiment: as above; format: cell-based, Acinetobacter baumannii; settings: A. baumannii A489, preliminary MBC; for MBC: 2nd experiment
[10] = test system: A. baumannii A390; experiment: as above; format: cell-based, Acinetobacter baumannii; settings: for MBC: 2nd experiment
Summary of the method: (§1)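 Incubation 18-20 h, 37° C. MBC = lowest conc. with ~90% fewer colonies than positive control (single/no colonies).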

[11] = test system: A. baumannii A473; experiment: as above; format: cell-based, Acinetobacter baumannii; settings: for MBC: 2nd experiment
Summary of the method: as §1

[12] = test system: A. baumannii NCTC 13301; experiment: as above; format: cell-based, Acinetobacter baumannii; settings: A. baumannii NCTC 13301, preliminary MBC; for MBC: 2nd experiment
Summary of the method: as §1

[13] = test system: A. baumannii A14; experiment: as above; format: cell-based, Acinetobacter baumannii; settings: 2nd experiment
Summary of the method: as §1

[14] = test system: A. baumannii A14; experiment: as above; format: cell-based, Acinetobacter baumannii; settings: A. baumannii A14, preliminary MBC, 1st experiment
[15] = test system: A. baumannii A401; experiment: MIC without and with sub-inhibitory polymyxin B (Example 4); format: cell-based, Acinetobacter baumannii; settings: A baumannii A 401; for MIC: 2nd experiment
[16] = test system: A. baumannii A14; experiment: as above; format: cell-based, Acinetobacter baumannii; settings: A. baumannii A14, 2nd experiment
[17] = test system: A. baumannii NCTC 13301; experiment: as above; format: cell-based, Acinetobacter baumannii; settings: A. baumannii NCTC 13301, 1st experiment
[18] = test system: A. baumannii A472; experiment: Preliminary MBC without and with sub-inhibitory polymyxin B (Example 4); format: cell-based, Acinetobacter baumannii; settings: A. baumannii A472, preliminary MBC; for MBC: 2nd experiment
[19] = test system: A. baumannii A472; experiment: MIC without and with sub-inhibitory polymyxin B (Example 4); format: cell-based, Acinetobacter baumannii; settings: A. baumannii A472; for MIC: 2nd experiment
[20] = test system: A. baumannii NCTC 13301; experiment: as above; format: cell-based, Acinetobacter baumannii; settings: A. baumannii NCTC 13301, 2nd experiment
[21] = test system: A. baumannii A14; experiment: as above; format: cell-based, Acinetobacter baumannii; settings: 1st experiment
[22] = test system: strains of A. baumannii and one strain of Acinetobacter sp.; experiment: MIC with sub-inhibitory concentrations (0.25x MIC) of polymyxin B, panel of Acinetobacter strains (Example 4); format: cell-based
[23] = test system: A. baumannii J2; experiment: MIC without and with sub-inhibitory polymyxin B (Example 4); format: cell-based, Acinetobacter baumannii; settings: A. baumannii J2
[24] = test system: A. baumannii A329; experiment: as above; format: cell-based, Acinetobacter baumannii; settings: A. baumannii A329
[25] = ratio, PB 0.06 μg/ml, 1st experiment
[26] = without polymyxin B, 1st experiment
[27] = Acinetobacter spp. H064200250 (OXA51), +[…] PB, 2nd experiment
[28] = A. baumannii ATCC 19606, +0.06 μg/ml PB, 2nd experiment
[29] = +[…] polymyxin B, 1st experiment

8-[(3S)-3-aminocyclopentyl]-1- cyclopropyl-7-fluoro-9-methyl- 4-oxo-quinolizine-3-carboxylic acid [Compound 10, reference compound]
4: MIC without PB/MIC + PB ([20]; +[…] PB)
0.03 µg/mL: MIC +0.06 μg/ml PB ([7]; A. baumannii ATCC 19606, +0.06 μg/ml polymyxin B, 1st experiment)
0.06 µg/mL: MIC [7, 28] | MIC ([7]; A. baumannii ATCC 19606, without PB, value in parentheses marked *, mark not explained, 2nd experiment)
8 µg/mL: MIC without PB ([17]; without polymyxin B) | MIC without PB ([21]; without polymyxin B) | MIC without PB [24, 26]
8: MIC without PB/MIC + PB ([17]; ratio, PB […]) | MIC without PB/MIC + PB ([23]; +[…] PB, 2nd experiment)
1.00 µg/mL: MBC +0.06 μg/ml PB ([2]; A baumannii A 401, +0.06 μg/ml polymyxin B, 1st experiment) | MBC +[…] PB [9, 29] | MBC +[…] PB [12, 29] | MIC +0.06 μg/ml PB ([15]; +0.06 μg/ml polymyxin B, 1st experiment) | MIC +[…] PB ([17]; +[…] polymyxin B)
0.25 µg/mL: MBC +0.06 μg/ml PB ([8]; A. baumannii A387, +0.06 μg/ml polymyxin B, 1st experiment) | MBC +[…] PB [18, 29] | MIC ([23]; +[…] PB, 2nd experiment)
2: MIC without PB/MIC + PB [3] | MIC without PB/MIC + PB ([6]; +0.06 μg/ml PB, 2nd experiment) | MIC without PB/MIC + PB [7, 28] | MIC without PB/MIC + PB [15, 25] | MIC without PB/MIC + PB ([19]; ratio, PB […], 1st experiment) | MIC without PB/MIC + PB ([23]; ratio, PB […], 1st experiment) | MIC without PB/MIC + PB ([24]; +0.06 μg/ml PB, 2nd experiment)
1 µg/mL: MBC ([2]; A baumannii A 401, +0.06 μg/ml PB) | MBC ([2]; A baumannii A 401, without PB) | MBC without PB ([2]; A baumannii A 401, without polymyxin B, 1st experiment) | MIC +[…] PB [3] | MIC [3, 27] | MIC ([3]; Acinetobacter spp. H064200250 (OXA51), without PB, 2nd experiment) | MIC without PB [5, 26] | MIC ([6]; without PB, 2nd experiment) | MIC without PB [6, 26] | MBC ([9]; +[…] PB) | MBC ([9]; without PB) | MBC without PB [9, 26] | MBC ([10]; A. baumannii A390, without PB) | MBC without PB ([10]; A. baumannii A390, without polymyxin B, 1st experiment) | MBC ([11]; A. baumannii A473, without PB) | MBC ([13]; A. baumannii A14, +0.06 μg/ml PB) | MIC ([15]; +0.06 μg/ml PB) | MIC ([15]; without PB) | MBC ([18]; without PB) | MBC without PB [18, 26] | MIC ([19]; without PB) | MIC without PB [19, 26] | MIC +[…] PB [23, 29] | MIC ([24]; +0.06 μg/ml PB, 2nd experiment)
0.5 µg/mL: MIC ([1]; +0.06 μg/ml PB, 2nd experiment) | MIC ([1]; without PB, 2nd experiment) | MIC without PB [1, 26] | MIC ([5]; +0.06 μg/ml PB, 2nd experiment) | MIC ([6]; +0.06 μg/ml PB, 2nd experiment) | MBC ([8]; A. baumannii A387, +0.06 μg/ml PB) | MBC ([8]; A. baumannii A387, without PB) | MBC without PB ([8]; A. baumannii A387, without polymyxin B, 1st experiment) | MBC ([10]; A. baumannii A390, +0.06 μg/ml PB) | MBC ([11]; A. baumannii A473, +0.06 μg/ml PB) | MBC without PB ([11]; A. baumannii A473, without polymyxin B, 1st experiment) | MBC ([12]; +[…] PB) | MBC ([18]; +[…] PB) | MIC ([19]; +[…] PB) | MIC +[…] PB [19, 29] | MIC ([20]; +[…] PB)
0.25 to 2 µg/mL: MIC range with PB (0.25x MIC) Oct. 14, 2008 n = 11 ([22]; 2nd experiment, 0.06 μg/ml polymyxin B, all strains except the ATCC strain)
0: MIC without PB/MIC + PB ([5]; +0.06 μg/ml PB, 2nd experiment)
2 µg/mL: MIC without PB ([3]; Acinetobacter spp. H064200250, without polymyxin B, 1st experiment) | MBC ([4]; A. baumannii A329, +0.06 μg/ml PB) | MBC ([4]; A. baumannii A329, without PB) | MBC without PB ([4]; A. baumannii A329, without polymyxin B, 1st experiment) | MBC ([12]; without PB) | MBC without PB [12, 26] | MBC ([13]; A. baumannii A14, without PB) | MBC without PB ([14]; without polymyxin B) | MIC without PB [15, 26] | MIC ([16]; +0.06 μg/ml PB) | MIC ([16]; without PB) | MIC ([20]; without PB) | MIC ([23]; without PB, 2nd experiment) | MIC without PB [23, 26] | MIC read with alamar blue ([24]; +0.06 μg/ml PB, value in parentheses, 2nd experiment) | MIC ([24]; without PB, 2nd experiment)
1: MIC without PB/MIC + PB ([1]; +0.06 μg/ml PB, 2nd experiment) | MIC without PB/MIC + PB [1, 25] | MIC without PB/MIC + PB [3, 27] | MIC without PB/MIC + PB ([16]; +0.06 μg/ml PB) | MIC without PB/MIC + PB ([21]; ratio, PB 0.06 μg/ml)
256: MIC without PB/MIC + PB ([7]; A. baumannii ATCC 19606, ratio, PB 0.06 μg/ml, 1st experiment)
0.5 to 8 µg/mL: MIC range with PB (0.25x MIC) Oct. 1, 2008 n = 8 ([22]; 1st experiment, […] polymyxin B, ATCC 19606, A329, A390 and A473 not taken)
less potentiated: Change of activity (MIC) in presence of polymyxin B compared to without polymyxin B [22]
8.00 µg/mL: MIC +0.06 μg/ml PB ([21]; +0.06 μg/ml polymyxin B)
0.125 µg/mL: MIC ([7]; A. baumannii ATCC 19606, without PB, 2nd experiment)
2.00 µg/mL: MBC +0.06 μg/ml PB ([14]; +0.06 μg/ml polymyxin B)
potent activities: Activity against the A. baumannii ATCC 19606 strain ([7]; with and without sub-inhibitory concentrations of polymyxin B)
1-8: Range ratios MIC without PB/MIC with PB Oct. 1, 2008 n = 8 ([22]; 1st experiment) | Range ratios MIC without PB/MIC with PB Oct. 14, 2008 n = 11 ([22]; 2nd experiment)
